The structures appear in SMILES notation.

These results are taken from US9174953B2, “Bicyclic thiazoles as allosteric modulators of mGluR5 receptors” (Janssen Pharmaceutica NV, priority 2009, dated 2015).

One series deals with T1, human mGluR5 receptor (Homo sapiens, UniProt P41594).
T1 construct: expressed in transfected cells
Description: intracellular Ca2+ mobilization assay, potentiation of glutamate EC20 response (FDSS). Format: cell-based. The following applies: for Emax: HEK293, maximum % effect in concentration-response curve, relative to glutamate ECMax-treated wells, HEK-293 human mGluR5; for EC50: human mGluR5 stably expressed in HEK-293 cells, Fluo-4 AM, increase in glutamate EC20 (~0.2 μM) response. The text has this: The compounds provided in the present invention are positive allosteric modulators of mGluR5. These compounds appear to potentiate glutamate responses by binding to an allosteric site other than the glutamate binding site. The response of mGluR5 to a concentration of glutamate is increased when compounds of Formula (I) are present. Compounds of Formula (I) are expected to have their effect substantially at mGluR5 by virtue of their ability to enhance the function of the receptor. The behaviour of positive allosteric modulators tested at mGluR5 using the intracellular Ca^2+ mobilization binding assay method described below and which is suitable for the identification of such compounds.
In brief, the human mGluR5 receptor was stably expressed in HEK-293 cells and grown at a density of 40,000 cells/well in PDL-coated 384-well plates. Cells were preloaded with the calcium-sensing dye Fluo-4 AM and various concentrations of test compound were added in the absence of exogenous glutamate to test for direct agonist activity. Shortly (2.5 min) thereafter, an EC20 equivalent of glutamate (˜0.2 μM) was added. The fluorescence signal was monitored using a Hamamatsu Functional Drug Screening System (FDSS) fluorescence plate reader following the addition of compound alone (direct agonist response) and then the further addition of an EC20 of glutamate (positive allosteric modulation response). The pEC50 was defined as the negative log of the test compound concentration which produced an increase in the glutamate EC20-mediated response that was 50% of maximum. Individual amplitudes were expressed as % effect by multiplying each amplitude by 100 and then dividing the product by the mean of the amplitudes derived from the glutamate ECMax-treated wells. Emax values reported in this application are defined as the maximum % effect obtained in a concentration-response curve.

T1 sequence (P41594 21-1212): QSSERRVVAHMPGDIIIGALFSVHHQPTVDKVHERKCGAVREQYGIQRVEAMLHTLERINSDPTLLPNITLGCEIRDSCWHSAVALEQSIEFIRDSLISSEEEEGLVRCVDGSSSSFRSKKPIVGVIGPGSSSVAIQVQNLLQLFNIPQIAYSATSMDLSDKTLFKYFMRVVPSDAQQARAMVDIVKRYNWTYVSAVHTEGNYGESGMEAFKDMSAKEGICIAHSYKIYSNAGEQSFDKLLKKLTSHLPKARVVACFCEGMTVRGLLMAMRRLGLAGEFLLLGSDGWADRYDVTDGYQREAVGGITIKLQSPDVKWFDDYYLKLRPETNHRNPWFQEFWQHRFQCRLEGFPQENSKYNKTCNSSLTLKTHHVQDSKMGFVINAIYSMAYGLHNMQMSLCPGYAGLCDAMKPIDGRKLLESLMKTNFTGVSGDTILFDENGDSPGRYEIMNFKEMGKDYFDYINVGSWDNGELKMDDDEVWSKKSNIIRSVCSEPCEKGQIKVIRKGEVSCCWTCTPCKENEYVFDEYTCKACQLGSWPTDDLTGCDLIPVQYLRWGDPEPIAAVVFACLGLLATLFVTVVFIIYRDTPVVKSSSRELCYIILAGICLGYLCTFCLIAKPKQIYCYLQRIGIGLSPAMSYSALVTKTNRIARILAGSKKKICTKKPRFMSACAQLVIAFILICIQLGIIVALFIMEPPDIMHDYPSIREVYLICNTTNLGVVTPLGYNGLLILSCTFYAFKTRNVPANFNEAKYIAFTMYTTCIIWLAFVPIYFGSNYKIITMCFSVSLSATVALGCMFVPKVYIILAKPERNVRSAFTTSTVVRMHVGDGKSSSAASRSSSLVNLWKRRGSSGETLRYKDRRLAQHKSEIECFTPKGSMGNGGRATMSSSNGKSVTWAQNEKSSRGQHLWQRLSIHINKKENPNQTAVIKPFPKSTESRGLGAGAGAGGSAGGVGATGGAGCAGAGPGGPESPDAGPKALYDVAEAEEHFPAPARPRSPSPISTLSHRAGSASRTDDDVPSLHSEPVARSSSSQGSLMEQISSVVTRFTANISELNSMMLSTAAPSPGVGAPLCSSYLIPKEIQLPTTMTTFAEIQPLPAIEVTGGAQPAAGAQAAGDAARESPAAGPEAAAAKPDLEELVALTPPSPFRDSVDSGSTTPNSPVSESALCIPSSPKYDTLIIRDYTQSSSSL

Turning to `O=C1c2sc(OCc3ccccn3)nc2CCN1c1ccc(F)cc1F` [Compound 24], the melting point – broadly, the temperature, or range, at which the solid turns liquid – is 98.1 to 100.1 °C.
As to `O=C1NCCc2nc(C#Cc3ccccc3)sc21` [Compound 3, 6,7-dihydro-2-(phenylethynyl)-thiazolo[5,4-c]pyridin-4(5H)-one], the melting point was in the range of 232.1 to 235.1 °C. In addition, on human mGluR5 receptor, the maximal response (Emax) (usually the size of the effect at its maximum, as opposed to the concentration needed) turned out to be 78% and the 50% effective concentration (EC50) – broadly, the concentration giving half of the maximal effect – was 219 nM.
`O=C1CCCc2nc(C#Cc3cncc(F)c3)sc21` [Compound 2, 2-[(5-fluoro-3-pyridinyl)ethynyl]-5,6-dihydro-7(4H)-benzothiazolone]: the melting point was in the range of 139.2 to 141.9 °C. For the same compound, on human mGluR5 receptor, the Emax worked out at 83% and the EC50 is 4270 nM.
On the same counts, the results for `O=C1CCCc2nc(C#Cc3cccnc3)sc21` [Compound 10, 5,6-dihydro-2-(3-pyridinylethynyl)-7(4H)-benzothiazolone] are 109.5 to 112 °C, 92% and 1510 nM.
Turning to `O=C1c2sc(OCc3cccnc3)nc2CCN1c1ccc(F)cc1F` [Compound 23], the melting point is 106 to 110 °C.
Compound `O=C1NCCCc2nc(-c3ccc(N4CCCCC4)nc3)sc21` [Compound 8] showed a melting point of 260.3 to 264 °C. Besides, at human mGluR5 receptor, the Emax is 11% and the EC50 is 5010 nM.
On the same counts, the results for `O=C1CCCc2nc(C#Cc3ccccc3)sc21` [Compound 1, 5,6-dihydro-2-(phenylethynyl)-7(4H)-benzothiazolone] are 117.1 to 119.9 °C, 100% and 51.3 nM.
On the same counts, the results for `COCCN1CCc2nc(C#Cc3ccccc3)sc2C1=O` [Compound 11, 6,7-dihydro-5-(2-methoxyethyl)-2-(phenylethynyl)-thiazolo[5,4-c]pyridin-4 (5H)-one] are 144.5 to 148.2 °C, 64% and 275 nM.
On to `O=C1c2sc(C#Cc3ccccc3)nc2CCN1Cc1ccccc1` [Compound 12, 6,7-dihydro-2-(phenylethynyl)-5-(phenylmethyl)-thiazolo[5,4-c]pyridin-4(5H)-one], for which the melting point was 141.5 to 152.5 °C. On human mGluR5 receptor, the Emax stood at 90% and the EC50 is 468 nM.
In turn, `O=C1c2sc(NCc3ccccc3)nc2CCN1c1ccc(F)cc1` [Compound 22] came in with a melting point of 221.3 °C.
On the same count and under the same terms, in the case of `O=C1c2sc(OCc3ccncc3)nc2CCN1c1ccc(F)cc1` [Compound 21] it was 169.1 to 170.9 °C.
Regarding `CN1CCOc2cc(-c3nc4c(s3)C(=O)CCC4)ccc21` [Compound 9, 2-(4-methyl-3,4-dihydro-2H-1,4-benzoxazin-7-yl)-5,6-dihydro-1,3-benzothiazol-7(4H)-one], the melting point fell in the range of 218.1 to 220.8 °C. At human mGluR5 receptor, the Emax turned out to be 77% and the 50% effective concentration (EC50) was 6310 nM.
Regarding `O=C1CCCc2nc(CCc3ccccc3)sc21` [Compound 6, 5,6-dihydro-2-(2-phenylethyl)-7(4H)-benzothiazolone], at human mGluR5 receptor, the Emax turned out to be 51% and the 50% effective concentration (EC50) was 18600 nM.
For the compound `CN1CCc2nc(C#Cc3ccccc3)sc2C1=O` [Compound 4, 6,7-dihydro-5-methyl-2-(phenylethynyl)-thiazolo[5,4-c]pyridin-4(5H)-one], the melting point was 146.1 to 147.2 °C. At human mGluR5 receptor, the Emax turned out to be 79% and the EC50 is 69.2 nM.
